Test results published in PubChem BioAssay AID1963833 (Molecular Pharmacology Branch, DTP, NCI, 2024).

System: 883617-216-R-J1-PDC complex spheroid viability
Assay: Anticancer human tumor 883617-216-R-J1-PDC patient-derived bladder carcinoma cell line growth inhibition [POLQ]
Conditions: for IC50: curve of first compound; for viability, T/C: stronger effect = lower value
Procedure, shortened: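 Patient-derived tumour cells were co-cultured with HUVEC and mesenchymal stem cells as multicellular spheroids at 37 °C. They were treated with POLQ inhibitors (novobiocin, ART-558, RP6685) alone or combined with other agents. Top concentrations were at or near clinical Cmax (otherwise 10 microM; SN-38 at 1 microM), decreasing in half-log steps.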

[1] = second compound 0.0316 µM, first compound 0.0316 µM
[2] = second compound 0.0316 µM, first compound 0.1 µM
[3] = second compound 0.0316 µM, first compound 0.316 µM
[4] = second compound 0.0316 µM, first compound 1 µM
[5] = second compound 0.0316 µM, first compound 3.16 µM
[6] = second compound 0.0316 µM, first compound 10 µM
[7] = second compound 0.1 µM, first compound 0.0316 µM
[8] = second compound 0.1 µM, first compound 0.1 µM
[9] = second compound 0.1 µM, first compound 0.316 µM
[10] = second compound 0.1 µM, first compound 1 µM
[11] = second compound 0.1 µM, first compound 3.16 µM
[12] = second compound 0.1 µM, first compound 10 µM
[13] = second compound 0.316 µM, first compound 0.0316 µM
[14] = second compound 0.316 µM, first compound 0.1 µM
[15] = second compound 0.316 µM, first compound 0.316 µM
[16] = second compound 0.316 µM, first compound 1 µM
[17] = second compound 0.316 µM, first compound 3.16 µM
[18] = second compound 0.316 µM, first compound 10 µM
[19] = second compound 1 µM, first compound 0.0316 µM
[20] = second compound 1 µM, first compound 0.1 µM
[21] = second compound 1 µM, first compound 0.316 µM
[22] = second compound 1 µM, first compound 1 µM
[23] = second compound 1 µM, first compound 3.16 µM
[24] = second compound 1 µM, first compound 10 µM
[25] = second compound 3.16 µM, first compound 0.0316 µM
[26] = second compound 3.16 µM, first compound 0.1 µM
[27] = second compound 3.16 µM, first compound 0.316 µM
[28] = second compound 3.16 µM, first compound 1 µM
[29] = second compound 3.16 µM, first compound 3.16 µM
[30] = second compound 3.16 µM, first compound 10 µM
[31] = second compound 10 µM, first compound 0.0316 µM
[32] = second compound 10 µM, first compound 0.1 µM
[33] = second compound 10 µM, first compound 0.316 µM
[34] = second compound 10 µM, first compound 1 µM
[35] = second compound 10 µM, first compound 3.16 µM
[36] = second compound 10 µM, first compound 10 µM
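Also: spheroids exposed to compounds for seven days before readout.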
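For viability, T/C in this document: 100% = DMSO vehicle control viability.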

In the case of `CC1COCCN1c1cc(C2(S(C)(=N)=O)CC2)nc(-c2ccnc3[nH]ccc23)n1` (stereo unspecified) + COC1C(OC(N)=O)C(O)C(Oc2ccc3c(O)c(NC(=O)c4ccc(O)c(CC=C(C)C)c4)c(=O)oc3c2C)OC1(C)C, the IC50 (second compound 0.0316 µM) is reported as 2.63 µM, the IC50 (second compound 0.1 µM) is reported as 2.11 µM and the IC50 (second compound 0.316 µM) is reported as 2.53 µM. The IC50 (second compound 1 µM) was 3.63 µM, the IC50 (second compound 3.16 µM) was 1.83 µM and the IC50 (second compound 10 µM) was 2.95 µM. It also gave a viability, T/C [1] of 89%, a viability, T/C [2] of 101% and a viability, T/C [3] of 84.5%. For the same compound, the viability, T/C [4] was 83.5%, the viability, T/C [5] was 43.5% and the viability, T/C [6] was 31.2%. It also gave a viability, T/C [7] of 91.1%, a viability, T/C [8] of 91.5% and a viability, T/C [9] of 87.3%. For the same compound, the viability, T/C [10] was 69.1%, the viability, T/C [11] was 39.1% and the viability, T/C [12] was 37.1%. It also gave a viability, T/C [13] of 99.4%, a viability, T/C [14] of 89.6% and a viability, T/C [15] of 82.7%. For the same compound, the viability, T/C [16] was 67.8%, the viability, T/C [17] was 42.7% and the viability, T/C [18] was 38.7%. For the same compound, the viability, T/C [19] was 102%, the viability, T/C [20] was 84.8% and the viability, T/C [21] was 91.2%. The viability, T/C [22] was 70.8%, the viability, T/C [23] was 51.9% and the viability, T/C [24] was 31.3%. It also gave a viability, T/C [25] of 88.3%, a viability, T/C [26] of 97.3% and a viability, T/C [27] of 97.1%. It also gave a viability, T/C [28] of 61.8%, a viability, T/C [29] of 45.7% and a viability, T/C [30] of 32.6%. The viability, T/C [31] was 85.1%, the viability, T/C [32] was 82.4% and the viability, T/C [33] was 89.9%. The viability, T/C [34] was 65%, the viability, T/C [35] was 52.5% and the viability, T/C [36] was 40.5%.

`CCc1cc2c(N3CCc4c(cc(Cn5ccnc5)cc4-c4cn(C)nc4C(F)(F)F)C3=O)ccnc2c(OC)n1` + COC1C(OC(N)=O)C(O)C(Oc2ccc3c(O)c(NC(=O)c4ccc(O)c(CC=C(C)C)c4)c(=O)oc3c2C)OC1(C)C was tested, and the IC50 (second compound 0.0316 µM) was > 10 µM, the IC50 (second compound 0.1 µM) was > 10 µM and the IC50 (second compound 0.316 µM) was > 10 µM. For the same compound, the IC50 (second compound 1 µM) was > 10 µM, the IC50 (second compound 3.16 µM) was > 10 µM and the IC50 (second compound 10 µM) was > 10 µM. It also gave a viability, T/C [1] of 103%, a viability, T/C [2] of 103% and a viability, T/C [3] of 97.7%. For the same compound, the viability, T/C [4] was 104%, the viability, T/C [5] was 78.8% and the viability, T/C [6] was 57.6%. The viability, T/C [7] was 97.8%, the viability, T/C [8] was 93.9% and the viability, T/C [9] was 101%. For the same compound, the viability, T/C [10] was 92.5%, the viability, T/C [11] was 72.7% and the viability, T/C [12] was 58.6%. The viability, T/C [13] was 106%, the viability, T/C [14] was 93.4% and the viability, T/C [15] was 115%. It also gave a viability, T/C [16] of 99.9%, a viability, T/C [17] of 78.2% and a viability, T/C [18] of 53.5%. It also gave a viability, T/C [19] of 102%, a viability, T/C [20] of 93.1% and a viability, T/C [21] of 115%. It also gave a viability, T/C [22] of 100%, a viability, T/C [23] of 82.4% and a viability, T/C [24] of 57.1%. For the same compound, the viability, T/C [25] was 94.6%, the viability, T/C [26] was 95.3% and the viability, T/C [27] was 106%. It also gave a viability, T/C [28] of 104%, a viability, T/C [29] of 79.2% and a viability, T/C [30] of 62.6%. It also gave a viability, T/C [31] of 103%, a viability, T/C [32] of 93.4% and a viability, T/C [33] of 110%. The viability, T/C [34] was 106%, the viability, T/C [35] was 75.3% and the viability, T/C [36] was 57.8%.

In the case of `COc1cc2cc(C(=O)CCC(=O)O)sc2cc1OC` + COC1C(OC(N)=O)C(O)C(Oc2ccc3c(O)c(NC(=O)c4ccc(O)c(CC=C(C)C)c4)c(=O)oc3c2C)OC1(C)C, the IC50 (second compound 0.0316 µM) is reported as > 10 µM, the IC50 (second compound 0.1 µM) is reported as > 10 µM and the IC50 (second compound 0.316 µM) is reported as > 10 µM. The IC50 (second compound 1 µM) was > 10 µM, the IC50 (second compound 3.16 µM) was > 10 µM and the IC50 (second compound 10 µM) was > 10 µM. For the same compound, the viability, T/C [1] was 91.3%, the viability, T/C [2] was 89.1% and the viability, T/C [3] was 105%. The viability, T/C [4] was 83.3%, the viability, T/C [5] was 101% and the viability, T/C [6] was 90.9%. It also gave a viability, T/C [7] of 113%, a viability, T/C [8] of 102% and a viability, T/C [9] of 88.7%. It also gave a viability, T/C [10] of 93.8%, a viability, T/C [11] of 99.6% and a viability, T/C [12] of 102%. The viability, T/C [13] was 89.4%, the viability, T/C [14] was 83.6% and the viability, T/C [15] was 92.5%. For the same compound, the viability, T/C [16] was 93%, the viability, T/C [17] was 101% and the viability, T/C [18] was 89.2%. For the same compound, the viability, T/C [19] was 98.9%, the viability, T/C [20] was 96.6% and the viability, T/C [21] was 86.4%. The viability, T/C [22] was 100%, the viability, T/C [23] was 90.4% and the viability, T/C [24] was 98.2%. For the same compound, the viability, T/C [25] was 94%, the viability, T/C [26] was 94.1% and the viability, T/C [27] was 90.7%. For the same compound, the viability, T/C [28] was 101%, the viability, T/C [29] was 98.6% and the viability, T/C [30] was 92.4%. It also gave a viability, T/C [31] of 101%, a viability, T/C [32] of 98.5% and a viability, T/C [33] of 88.5%. The viability, T/C [34] was 93.9%, the viability, T/C [35] was 84.6% and the viability, T/C [36] was 101%.
